US20170328922A1, “METHODS AND PRODUCTS FOR LABELLING LIPIDS” (UNIVERSITY OF SOUTH AUSTRALIA, priority 2014, published 2017)

How the values were obtained:
Format in all cases: binding
[1] = Rhenium molecular probe-lipid overlay (dot blot); details: FIG. 7
Protocol: (§1) The experimental protocol probe-lipid overlay was as follows: 50 μM of each lipids was loaded on to PVDF membranes (Perkin Elmer, USA), which were then incubated with molecular probes. PhenCyano and PhenPyridyl were assessed against eleven lipids including; sphingomyelin (Cat # S0756, Sigma Aldrich, USA), sphingosine (Cat # S7049; Sigma Aldrich, USA), L-phosphatidylethanolamine (Cat # P7943, Sigma Aldrich, USA), monosialodanglioside (GM1; Cat # G7641, Sigma Aldrich, USA), oleoly-L-?-lysophosphatidic acid (Cat # L7260, Sigma Aldrich, USA), palmitic acid (Cat # P5917, Sigma Aldrich, USA), sphingomyelin (Cat # S0756, Sigma Aldrich, USA), sphingosine (Cat # S7049; Sigma Aldrich, USA), L-?-phosphatidylethanolamine (Cat # P7943, Sigma Aldrich, USA), monosialodanglioside (GM1; Cat # G7641, Sigma Aldrich, USA), progesterone (Cat #102722, MP Biomedical, USA), ceramide (Cat # C2137; Sigma Aldrich, USA), triacylglycerol mix C2-C10 (Cat #17810, Sigma Aldrich, USA) and cholesteryl acetate (Cat #151114; Sigma Aldrich, USA).
Lipids were dissolved in ethanol, methanol or isopropanol for loading depending on solubility. […] Imaging was performed on an Image Quant Las 4000 (GE, Sweden) luminescent image analyser, with the Rhenium molecular probe being detected by excitation at 460 nm using an epi-blue light source, and detected using an 575 nm ethidium bromide filter.

[2] = Rhenium molecular probe-lipid overlay (dot blot); details: FIG. 7 / FIG. 8
Protocol: as §1
(§2) All other molecular probes were assessed against a panel of six lipids including; sphingomyelin (Cat # S0756, Sigma Aldrich, USA), sphingosine (Cat # S7049; Sigma Aldrich, USA), L-?-phosphatidylethanolamine (Cat # P7943, Sigma Aldrich, USA), monosialodanglioside (GM1; Cat # G7641, Sigma Aldrich, USA), sphingomyelin (Cat # S0756, Sigma Aldrich, USA), sphingosine (Cat # S7049; Sigma Aldrich, USA), L-?-phosphatidylethanolamine (Cat # P7943, Sigma Aldrich, USA), monosialodanglioside (GM1; Cat # G7641, Sigma Aldrich, USA) and triacylglycerol mix C2-C10 (Cat #17810, Sigma Aldrich, USA).
(§3) Lipids were dissolved in ethanol, methanol or isopropanol for loading depending on solubility. Following lipid loading, membranes were left to dry for 20-30 minutes, then they were washed for 10 minutes in cold 10% ethanol, before they were incubated with 10 μM solution of each Rhenium molecular probe in cold 10% ethanol for one hour. Membranes were than washed four times for 10 minutes in cold 10% ethanol prior to imaging. Imaging was performed on an Image Quant Las 4000 (GE, Sweden) luminescent image analyser, with the Rhenium molecular probe being detected by excitation at 460 nm using an epi-blue light source, and detected using an 575 nm ethidium bromide filter.

[3] = Rhenium probe-lipid overlay, Example 5
Protocol: (§4) To determine the binding properties of tricarbonyl-(4-cyanophenyltretrazolato)-phenanthroline-rhenium (I) (Rhenium probe) to various lipids, Rhenium probe-lipid overlay was performed using either lipids spotted onto PDVF membranes (Perkin Elmer, USA) or lipid MicroStrips (Echelon Biosciences Inc., Salt Lake City, Utah). The membranes contained at least 100 pmoles of each lipid in individual spots (supplementary table 1) or 10 μL (each in PBS) of 10% (v/v) glycerol, 1% (v/v) CHAPS, 1% (w/v) SDS, 1% (v/v) Tween20, Ecydsone (10 μg/100 μL), cholesterol (10 μg/100 μL), progesterone (10 μg/100 μL), PBS, or 1% (v/v) ethanol; and were incubated with 0.5 mM of Rhenium probe in 1% (w/v) BSA/PBS for 40 minutes and then washed four times for 10 minutes in PBS. Imaging was performed on an Image Quant Las 4000 (GE, Sweden) luminescent image analyser, with the Rhenium probe being detected by excitation at 460 nm using an epi-blue light source, and detected using an 605 nm ethidium bromide filter.

[4] = Rhenium molecular probe-lipid overlay (dot blot); design: key to interaction with Sphingomyline (dot blot): ✓ indicates a positive interaction; x indicates no interaction
Protocol: as §1, §2, §3

[5] = Rhenium molecular probe-lipid overlay (dot blot); details: FIG. 7
Protocol: as §1, §3

[6] = Rhenium molecular probe-lipid overlay (dot blot); design: key to interaction with Lysophosphatidic acid (dot blot): ✓ indicates a positive interaction; x indicates no interaction
Protocol: as §1, §3

[7] = Rhenium molecular probe-lipid overlay (dot blot); design: key to interaction with GM1 (dot blot): ✓ indicates a positive interaction; x indicates no interaction
Protocol: as §1, §2, §3

[8] = Rhenium molecular probe-lipid overlay (dot blot); design: key to interaction with Ceramide (dot blot): ✓ indicates a positive interaction; x indicates no interaction
Protocol: as §1, §3

[9] = molecular target: albumin (Homo sapiens, UniProt P02768); experiment: Rhenium probe overlay, Example 5; details: neither ... nor ... reacted with the probe
Protocol: as §4

[10] = 0.5 mM probe in 1% BSA/PBS, FIG. 6
[11] = 10 μM probe, 50 μM lipid on PVDF membrane

Chain of albumin (P02768 25-609, species assumed): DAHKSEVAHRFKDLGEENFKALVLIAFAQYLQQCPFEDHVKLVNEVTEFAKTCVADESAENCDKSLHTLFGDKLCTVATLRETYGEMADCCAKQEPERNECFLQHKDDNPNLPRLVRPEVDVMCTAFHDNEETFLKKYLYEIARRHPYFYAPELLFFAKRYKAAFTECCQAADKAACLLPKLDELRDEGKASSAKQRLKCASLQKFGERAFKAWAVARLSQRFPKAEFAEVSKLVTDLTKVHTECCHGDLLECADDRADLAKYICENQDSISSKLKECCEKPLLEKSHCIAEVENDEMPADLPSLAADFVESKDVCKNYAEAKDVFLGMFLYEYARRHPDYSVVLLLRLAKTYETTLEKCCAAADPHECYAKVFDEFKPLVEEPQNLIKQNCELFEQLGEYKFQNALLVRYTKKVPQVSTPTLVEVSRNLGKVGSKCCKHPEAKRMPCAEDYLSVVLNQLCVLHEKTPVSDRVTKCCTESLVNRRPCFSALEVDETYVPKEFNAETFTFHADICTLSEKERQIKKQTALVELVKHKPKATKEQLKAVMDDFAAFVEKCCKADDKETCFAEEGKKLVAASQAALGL

Structure (SMILES): N#Cc1ccc(-c2nn[n]([Re](=[C]=O)(=[C]=O)=[C]=O)n2)cc1.c1cnc2c(c1)ccc1cccnc12 [PhenCyano, Triscarbonyl phenanthroline (4-cyanophenyltetrazolato)Rhenium(I)]
- interaction with fatty acid (palmitic acid), in words [1]: no interaction detected
- interaction with triglycerides, in words [2]: no interaction detected
- reactivity with long chain fatty acids ([3]; 0.5 mM probe in 1% BSA/PBS): did not react
- reactivity with neutral lipids ([3]; 0.5 mM probe in 1% BSA/PBS): did not react
- interaction with cholesterol [3, 10]: interacted
- interaction with ecdysone [3, 10]: interacted
- interaction with progesterone [3, 10]: interacted
- reactivity with CHAPS [3, 10]: high level of reactivity
- reactivity with deoxycholate [3, 10]: high level of reactivity
- reactivity with SDS ([3]; auto-reactivity of SDS alone at 575-605 nm on membrane): some residual background reactivity
- reactivity with Tween® 20 ([3]; auto-reactivity of Tween 20 alone at 575-605 nm on membrane): some residual background reactivity
- interaction with Sphingomyline (dot blot) [4, 11]: ✓
- affinity towards sphingomyelin, in words ([4]; FIG. 7 / FIG. 8): some affinity
- interaction with cholesterol ester (cholesteryl acetate), in words [5]: no interaction detected
- interaction with Lysophosphatidic acid (dot blot) [6, 11]: ✓
- affinity towards lysophosphatidic acid, in words ([6]; FIG. 7): some affinity
- interaction with GM1 (dot blot) [7, 11]: ✓
- affinity towards monosialotetrahexosylganglioside (GM1), in words ([7]; FIG. 7 / FIG. 8): some affinity
- interaction with Ceramide (dot blot) [8, 11]: x
- interaction with ceramide, in words ([8]; FIG. 7): no interaction detected
- reactivity with albumin [9]: Neither
